Test results from patent publication US10160972B2, “Methods and materials for treating cancer” (Mayo Foundation for Medical Education and Research, priority 2012, dated 2018).

Columns and labels:
[1] = system: A498 ccRCC cell line; conditions: read-out: IC50, decrease in proliferation; A498, day 5
Description: (§1) ccRCC cell lines: RWV366T and KIJ265T (16) (both stage IV ccRCC patient tissue derived), A498, Caki1, Caki2, and ACHN (ATCC) and K347N, K355N, K359N, K360N, K365N, and K366N normal renal tissue derived mortal cells (NRE) were cultured in DMEM medium (Cellgro) containing 5% FBS (Hyclone) and 1× penicillin-streptomycin (Invitrogen) at 37° C. in humidified conditions with 5% CO2.
(§2) Cells were plated (0.5 or 1×10^5/well) in 24-well plates for proliferation or treatment assays, in triplicate. Cells were trypsinized (0.25%) and counted using a Coulter Particle Counter at specified time intervals. For SCD1 rescue assays, oleic acid-albumin was added to media at 5 μM. Drug stocks were prepared in DMSO. […] Temsirolimus dosing was performed as described in the text. Soft agar cultures were prepared by diluting 2× growth medium 1:1 in 1.5% Seaplaque®GTG® agarose, with 500 cells/plate in 60 mm culture dishes. Colonies were stained with Giemsa (LabChem Inc.) and counted after 3 wks. Cell images were obtained with an OlympusIX71 microscope at 20× magnification.

[2] = system: ACHN ccRCC cell line; conditions: read-out: IC50, decrease in proliferation, day 5
Description: as §1, §2

[3] = system: Caki1 ccRCC cell line; conditions: read-out: IC50, decrease in proliferation; Caki1, day 5
Description: as §1, §2

[4] = system: Caki2 ccRCC cell line; conditions: read-out: IC50, decrease in proliferation; Caki2, day 5
Description: as §1, §2

[5] = system: Caki1, A498, Caki2, and ACHN ccRCC cell lines; assay: OA-BSA rescue of growth inhibition; type: cell-based, human; conditions: IC50 doses of A939572 + OA-BSA vs DMSO+BSA control, all four cell lines
Description: Drug stocks were prepared in DMSO. Monotherapeutic treatment identified drug dose-response. […] Temsirolimus dosing was performed as described in the text.

[6] = system: Caki1, A498, Caki2, and ACHN ccRCC cell lines; assay: PARP cleavage western blot (apoptosis); type: cell-based, human
Description: (§3) Protein extracts, electrophoresis, and membrane transfers were prepared as previously described (Copland J A, Marlow L A, Kurakata S, Fujiwara K, Wong A K, Kreinest P A, et al. Novel highaffinity PPARgamma agonist alone and in combination with paclitaxel inhibits human anaplastic thyroid carcinoma tumor growth via p21WAF1/CIP1. Oncogene. 2006; 25:2304-17). Primary antibodies included SCD1, PARP, DDIT3, BiP, sXBP1, and β-actin. A Supersignal chemiluminescent kit was used to perform detection.

[7] = system: Caki1 and A498 cells; assay: Western blot of ER stress markers; type: cell-based, human; conditions: 75 nM drug or shSCD780 knockdown, 48 hours
Description: as §3

[8] = system: A498 ccRCC xenografts; assay: Western blot of CHOP in xenograft tumor tissue; type: in vivo, athymic nude (nu/nu) mice; conditions: normalized to β-actin, tumor tissue samples
Description: as §3

[9] = system: A375 melanoma cells; assay: Cell number growth inhibition assay; type: cell-based, human
Description: (§4) A number of cancer cell lines were tested to determine whether SCD1 protein expression correlates with growth inhibition of an SCD1 inhibitor in human cancer cell lines.
(§5) Cells (20,000/ml) were plated in 12 well cell culture plates, allowed to attach and treated with the indicated dose of SCD1 inhibitor ([…]) or standard of care (gemcitabine). Cell number was counted using a Coulter Counter. As show in FIG. 7, the data are expressed as percent of DMSO control. Each value represents triplicates. Western analysis for SCD1 protein expression was performed on each cell line with beta-actin as the loading control.
(§6) The following cell lines were studied using a similar method as that described above.

[10] = system: A549 nonsmall cell lung cancer cells; assay: Cell number growth inhibition assay; type: cell-based, human
Description: as §4, §5, §6

[11] = system: BCJ4T bladder cancer cells; assay: Cell number growth inhibition assay; type: cell-based, human
Description: as §4, §5, §6

[12] = system: Caco2 colon cancer cells; assay: Cell number growth inhibition assay; type: cell-based, human
Description: as §4, §5, §6

[13] = system: Calu-1 lung cancer cells; assay: Cell number growth inhibition assay; type: cell-based, human
Description: as §4, §5, §6

[14] = system: DU-145 prostate cancer cells; assay: Cell number growth inhibition assay; type: cell-based, human
Description: as §4, §5, §6

[15] = system: HOV TAX2 ovarian cancer cells; assay: Cell number growth inhibition assay; type: cell-based, human
Description: as §4, §5, §6

[16] = system: HT1376 bladder cancer cells; assay: Cell number growth inhibition assay; type: cell-based, human
Description: as §4, §5, §6

[17] = system: HT29 colon cancer cells; assay: Cell number growth inhibition assay; type: cell-based, human
Description: as §4, §5, §6

[18] = system: KTC3 thyroid cancer cells; assay: Cell number growth inhibition assay; type: cell-based, human
Description: as §4, §5, §6

[19] = system: LNCAP prostate cancer cells; assay: Cell number growth inhibition assay; type: cell-based, human
Description: as §4, §5, §6

[20] = system: MCF-7 (ER+/PR+) breast cancer cells; assay: Cell number growth inhibition assay; type: cell-based, human
Description: as §4, §5, §6

[21] = system: MDA-231 (triple negative) breast cancer cells; assay: Cell number growth inhibition assay; type: cell-based, human
Description: as §4, §5, §6

[22] = system: Mela 11 melanoma cells; assay: Cell number growth inhibition assay; type: cell-based, human
Description: as §4, §5, §6

[23] = system: OVCA420 ovarian cancer cells; assay: Cell number growth inhibition assay; type: cell-based, human
Description: as §4, §5, §6

[24] = system: SNU449 liver cancer cells; assay: Cell number growth inhibition assay; type: cell-based, human; conditions: SNU449
Description: as §4, §5, §6

[25] = system: T24 bladder cancer cells; assay: Cell number growth inhibition assay; type: cell-based, human
Description: as §4, §5, §6

[26] = system: T47D (PR+) breast cancer cells; assay: Cell number growth inhibition assay; type: cell-based, human
Description: as §4, §5, §6

[27] = read-out: estimated IC50 concentration, growth inhibition

Question: How did the IC50 [1] turn out when `CNC(=O)c1cccc(NC(=O)N2CCC(Oc3ccccc3Cl)CC2)c1` [A939572] was run?
Answer: 50 nM

Question: And the IC50 [2]?
Answer: 6 nM

Question: What about the IC50 [3] of the same compound?
Answer: 65 nM

Question: What about the IC50 [4] of the same compound?
Answer: 65 nM

Question: What about the “growth inhibition with addition of OA-BSA” value [5] of the same compound?
Answer: prevented A939572 mediated growth inhibition

Question: What about the “apoptosis by PARP cleavage with addition of OA-BSA” value ([6]; A939572 + OA-BSA) of the same compound?
Answer: blocked apoptosis

Question: And the “apoptosis by PARP cleavage” value ([6]; western blot, all four cell lines)?
Answer: induced apoptosis

Question: What about the “protein expression of ER stress markers BiP, CHOP, spliced-XBP1” value [7] of the same compound?
Answer: amplified expression

Question: And the “CHOP expression (ER stress)” value [8]?
Answer: Increased expression of CHOP

Question: And the growth inhibition [9]?
Answer: growth inhibited in a dose dependent fashion

Question: What about the IC50 [9, 27] of the same compound?
Answer: ~50 nM

Question: What about the growth inhibition [10] of the same compound?
Answer: growth inhibited in a dose dependent fashion

Question: And the growth inhibition [11]?
Answer: not growth inhibited

Question: And the growth inhibition [12]?
Answer: growth inhibited in a dose dependent fashion

Question: And the growth inhibition [13]?
Answer: not growth inhibited

Question: And the growth inhibition [14]?
Answer: growth inhibited in a dose dependent fashion

Question: What about the growth inhibition [15] of the same compound?
Answer: growth inhibited in a dose dependent fashion

Question: And the growth inhibition [16]?
Answer: growth inhibited in a dose dependent fashion

Question: And the growth inhibition [17]?
Answer: growth inhibited in a dose dependent fashion

Question: And the growth inhibition [18]?
Answer: growth inhibited in a dose dependent fashion

Question: And the growth inhibition [19]?
Answer: growth inhibited in a dose dependent fashion

Question: What about the growth inhibition [20] of the same compound?
Answer: growth inhibited in a dose dependent fashion

Question: What about the growth inhibition [21] of the same compound?
Answer: growth inhibited in a dose dependent fashion

Question: What about the growth inhibition [22] of the same compound?
Answer: not growth inhibited

Question: What about the growth inhibition [23] of the same compound?
Answer: growth inhibited in a dose dependent fashion

Question: What about the growth inhibition [24] of the same compound?
Answer: growth inhibited in a dose dependent fashion

Question: And the IC50 [24, 27]?
Answer: ~100 nM

Question: What about the growth inhibition [25] of the same compound?
Answer: growth inhibited in a dose dependent fashion

Question: And the growth inhibition [26]?
Answer: growth inhibited in a dose dependent fashion
